According to ChEMBL document CHEMBL6120963, “Discovery of Novel PROTAC SIRT6 Degraders with Potent Efficacy against Hepatocellular Carcinoma” (J Med Chem, 2024):
pIC50: −log10 of the molar value. Active and inactive are the calls of the source. The calls are words filed in the database; no cut-off is given here.

Assays:
[1] = Toxicity in BALB/c nude mouse xenografted with human SK-HEP1 cells assessed as body weight loss at 10 mg/kg treated for 28 to 30 days; type: organism-based; conditions: in vivo, time 28-30 day
[2] = molecular target: T1, Protein cereblon/NAD-dependent protein deacylase sirtuin-6 (Homo sapiens, UniProt Q8N6T7+Q96SW2); assay: PROTAC activity at CRBN/SIRT6 in human SK-HEP1 cells assessed as induction of SIRT6 degradation at 2 uM incubated for 36 hrs by In-Cell ELISA relative to control; type: cell-based
Target sequence in this assay (Q8N6T7 2-355 limits assumed): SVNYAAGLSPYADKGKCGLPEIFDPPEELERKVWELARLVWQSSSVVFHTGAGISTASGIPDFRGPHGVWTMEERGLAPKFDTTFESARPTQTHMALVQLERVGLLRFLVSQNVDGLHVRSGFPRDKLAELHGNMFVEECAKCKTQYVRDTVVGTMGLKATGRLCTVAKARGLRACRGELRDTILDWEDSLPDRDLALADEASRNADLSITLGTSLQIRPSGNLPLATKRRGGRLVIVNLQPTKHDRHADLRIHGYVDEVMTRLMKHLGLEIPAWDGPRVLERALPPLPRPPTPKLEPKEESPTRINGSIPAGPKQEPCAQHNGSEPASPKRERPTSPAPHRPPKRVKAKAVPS
Target sequence in this assay (Q96SW2 whole entry partner): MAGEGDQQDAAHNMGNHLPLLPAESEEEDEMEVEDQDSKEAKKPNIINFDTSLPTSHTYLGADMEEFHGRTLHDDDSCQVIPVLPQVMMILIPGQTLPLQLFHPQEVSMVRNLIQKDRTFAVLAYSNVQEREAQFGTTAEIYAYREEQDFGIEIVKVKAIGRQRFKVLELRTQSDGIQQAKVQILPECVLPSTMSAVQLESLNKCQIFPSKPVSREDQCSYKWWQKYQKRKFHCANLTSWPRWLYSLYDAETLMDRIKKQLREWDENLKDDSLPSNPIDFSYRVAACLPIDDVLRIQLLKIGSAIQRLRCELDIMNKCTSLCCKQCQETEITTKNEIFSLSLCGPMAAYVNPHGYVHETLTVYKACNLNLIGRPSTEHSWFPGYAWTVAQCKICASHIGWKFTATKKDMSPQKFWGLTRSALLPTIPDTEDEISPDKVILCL

[3] = molecular target: T1, Protein cereblon/NAD-dependent protein deacylase sirtuin-6; assay: PROTAC activity at CRBN/SIRT6 in human Huh-7 cells assessed as induction of SIRT6 degradation incubated for 36 hrs by Western blot analysis; type: cell-based
SK-HEP1 [4] = assay: Effect of SIRT2 mRNA expression in human SK-HEP1 cells at 2.5 uM incubated for 36 hrs by RT-qPCR analysis; type: functional, cell-based
SK-HEP1 [5] = assay: Downregulation of NAIF1 expression in human SK-HEP1 cells at 2.5 uM incubated for 36 hrs in presence of MLN4924; type: functional, cell-based
SK-HEP1 [6] = assay: Effect of TFRC mRNA expression in human SK-HEP1 cells at 2.5 uM incubated for 36 hrs by RNA sequencing analysis; type: functional, cell-based
[7] = Toxicity in BALB/c nude mouse xenografted with human SK-HEP1 cells assessed as pathological damage in kidney at 10 mg/kg treated for 28 to 30 days under irradiation (3 Gy) by H and E staining based analysis; type: organism-based; conditions: in vivo, time 28-30 day
SK-HEP1 [8] = assay: Effect of SIRT6 mRNA expression in human SK-HEP1 cells at 2.5 uM incubated for 36 hrs by RNA sequencing analysis; type: functional, cell-based
[9] = molecular target: T1, Protein cereblon/NAD-dependent protein deacylase sirtuin-6; assay: PROTAC activity at CRBN/SIRT6 in human SK-HEP1 cells assessed as induction of SIRT6 degradation at 200 nM incubated for 36 hrs by In-Cell ELISA relative to control; type: cell-based
Target sequence in this assay (Q8N6T7 2-355 limits assumed): as the sequence (Q8N6T7 2-355 limits assumed) above
Target sequence in this assay (Q96SW2 whole entry partner): as the sequence (Q96SW2 whole entry partner) above

[10] = molecular target: T1, Protein cereblon/NAD-dependent protein deacylase sirtuin-6; assay: PROTAC activity at CRBN/SIRT6 in human SK-HEP1 cells assessed as impairment in gamma-H2AX foci formation by immunofluorescence based analysis; type: cell-based
Target sequence in this assay (Q8N6T7 2-355 limits assumed): as the sequence (Q8N6T7 2-355 limits assumed) above
Target sequence in this assay (Q96SW2 whole entry partner): as the sequence (Q96SW2 whole entry partner) above

SK-HEP1 [11] = assay: Induction of apoptosis in human SK-HEP1 cells xenografted in BALB/c nude mouse assessed as increase in cleaved caspase-3 level at 10 mg/kg treated for 28 to 30 days under irradiation (3 Gy); type: functional, organism-based; conditions: time 28-30 day
SK-HEP1 [12] = assay: Induction of apoptosis in human SK-HEP1 cells assessed as rate of apoptotic cells at 10 uM incubated for 72 hrs by Annexin V-FITC/PI staining based flow cytometry relative to control; type: functional
SK-HEP1 [13] = assay: Effect of POSTN mRNA expression in human SK-HEP1 cells at 2.5 uM incubated for 36 hrs by RNA sequencing analysis; type: functional, cell-based
SK-HEP1 [14] = assay: Synergistic antitumor activity against human SK-HEP1 cells xenografted in BALB/c nude mouse at 10 mg/kg treated for 28 to 30 days in presence of sorafenib relative to control; type: functional; conditions: time 28-30 day
[15] = molecular target: T1, Protein cereblon/NAD-dependent protein deacylase sirtuin-6; assay: PROTAC activity at CRBN/SIRT6 in MG132-treated human SK-HEP1 cells assessed as induction of SIRT6 degradation at 2.5 uM treated for 36 hrs by Western blot analysis; type: cell-based
Target sequence in this assay (Q8N6T7 2-355 limits assumed): as the sequence (Q8N6T7 2-355 limits assumed) above
Target sequence in this assay (Q96SW2 whole entry partner): as the sequence (Q96SW2 whole entry partner) above

[16] = Toxicity in BALB/c nude mouse xenografted with human SK-HEP1 cells assessed as pathological damage in lungs at 10 mg/kg treated for 28 to 30 days under irradiation (3 Gy) by H and E staining based analysis; type: organism-based; conditions: in vivo, time 28-30 day
SK-HEP1 [17] = assay: Effect of genes related to ubiquitin-mediated proteolysis in human SK-HEP1 cells at 2.5 uM incubated for 36 hrs by GSEA analysis; type: functional, cell-based
SK-HEP1 [18] = assay: Effect of ABI3BP mRNA expression in human SK-HEP1 cells at 2.5 uM incubated for 36 hrs by RNA sequencing analysis; type: functional, cell-based
[19] = molecular target: T1, Protein cereblon/NAD-dependent protein deacylase sirtuin-6; assay: PROTAC activity at CRBN/SIRT6 in human Huh-7 cells assessed as hook effect at 5 uM incubated for 36 hrs by Western blot analysis; type: cell-based
Target sequence in this assay (Q8N6T7 2-355 limits assumed): as the sequence (Q8N6T7 2-355 limits assumed) above
Target sequence in this assay (Q96SW2 whole entry partner): as the sequence (Q96SW2 whole entry partner) above

[20] = molecular target: T1, Protein cereblon/NAD-dependent protein deacylase sirtuin-6; assay: PROTAC activity at CRBN/SIRT6 in human SK-HEP1 cells assessed as disruption of CHD4 recruitment to DSB sites at 2.5 uM incubated for 36 hrs followed by CPT treatment for 4 hrs by Western blot analysis; type: cell-based; conditions: time 40.0 hrs
Target sequence in this assay (Q8N6T7 2-355 limits assumed): as the sequence (Q8N6T7 2-355 limits assumed) above
Target sequence in this assay (Q96SW2 whole entry partner): as the sequence (Q96SW2 whole entry partner) above

SK-HEP1 [21] = assay: Effect of SIRT1 mRNA expression in human SK-HEP1 cells at 2.5 uM incubated for 36 hrs by RT-qPCR analysis; type: functional, cell-based
SK-HEP1 [22] = assay: Effect of genes related to DNA replication in human SK-HEP1 cells at 2.5 uM incubated for 36 hrs by GSEA analysis; type: functional, cell-based
SK-HEP1 [23] = assay: Downregulation of FBXO44 expression in human SK-HEP1 cells at 2.5 uM incubated for 36 hrs; type: functional, cell-based
SK-HEP1 [24] = assay: Induction of cell cycle arrest in human SK-HEP1 cells assessed as accumulation at G2/M phase incubated for 72 hrs by PI staining based flow cytometry; type: functional; conditions: dose 2.5-10 µM
[25] = Toxicity in BALB/c nude mouse xenografted with human SK-HEP1 cells assessed as pathological damage in spleen at 10 mg/kg treated for 28 to 30 days under irradiation (3 Gy) by H and E staining based analysis; type: organism-based; conditions: in vivo, time 28-30 day
SK-HEP1 [26] = assay: Effect on H3K18Ac expression in human SK-HEP1 cells at 0.002 to 1 uM incubated for 36 hrs by Western blot analysis; type: functional, cell-based; conditions: dose 0.002-1 µM
[27] = molecular target: T1, Protein cereblon/NAD-dependent protein deacylase sirtuin-6; assay: PROTAC activity at CRBN/SIRT6 in human U2OS cells with DNA repair assessed as inhibition of CHD4 loading onto chromatin incubated for 36 hrs by FACS analysis; type: cell-based
SK-HEP1 [28] = assay: Inhibition of colony formation in human SK-HEP1 cells at 5 to 10 uM incubated for 10 to 14 days with replacement of medium containing compounds on every 3 days by crystal violet staining based analysis; type: functional, cell-based; conditions: dose 5-10 µM, time 10-14 day
[29] = Toxicity in BALB/c nude mouse xenografted with human SK-HEP1 cells assessed as pathological damage in liver at 10 mg/kg treated for 28 to 30 days in presence of sorafenib by H and E staining based analysis; type: organism-based; conditions: in vivo, time 28-30 day
[30] = molecular target: T1, Protein cereblon/NAD-dependent protein deacylase sirtuin-6; assay: PROTAC activity at CRBN/SIRT6 in human SK-HEP1 cells assessed as impairment in CHD4 foci formation by immunofluorescence based analysis; type: cell-based
[31] = Toxicity in BALB/c nude mouse xenografted with human SK-HEP1 cells assessed as histopathological abnormalities in lungs at 10 mg/kg treated for 28 to 30 days in presence of sorafenib by H and E staining based analysis; type: organism-based; conditions: in vivo, time 28-30 day
SK-HEP1 [32] = assay: Cytotoxicity against human SK-HEP1 cells combined with irradiation (3 Gy) incubated for 72 hrs by CCK8 assay; type: functional, cell-based; conditions: SK-HEP1, light or radiation study
SK-HEP1 [33] = assay: Cytotoxicity against human SK-HEP1 cells harboring SIRT6 siRNA incubated for 72 hrs by CCK8 assay; type: functional, cell-based
[34] = molecular target: T1, Protein cereblon/NAD-dependent protein deacylase sirtuin-6; assay: PROTAC activity at CRBN/SIRT6 in human Huh-7 cells assessed as induction of SIRT6 degradation upto 10 uM incubated for 36 hrs by Western blot analysis relative to control; type: cell-based

- Activity [2]: 92.5%
- DC50 [3]: 154 nM
- Activity [9]: 67.7%
- Activity [10]: Active
- Activity [19]: Active
- Activity [20]: Active
- Activity [30]: Active
- Emax [34]: 91.8%
Structure (SMILES): Nc1cc(N2CCN(CC3CCN(c4cc5c(cc4F)C(=O)N(C4CCC(=O)NC4=O)C5=O)CC3)CC2)ccc1[N+](=O)[O-] (stereo unspecified)
- Activity [1]: Non-toxic
- Activity ([3]; dose 0.008-5 µM): Dose-dependent-effect; But Reduced Degradation Efficiency Observed
- Activity (SK-HEP1 [4]): No effect
- Activity (SK-HEP1 [5]): inactive
- Activity (SK-HEP1 [6]): Active
- Activity [7]: Non-toxic
- Activity (SK-HEP1 [8]): No effect; The Mrna Level Did Not Markedly Change
- Activity (SK-HEP1 [11]): Active
- Activity (SK-HEP1 [12]): Active
- Activity (SK-HEP1 [12]; record 2): <=60%
- Activity (SK-HEP1 [13]): Active
- T/C (SK-HEP1 [14]): 18.2%
- Activity [15]: Not active; Confirms That Proteosome Is Necessary For Sirt6 Degradation
- Activity [16]: Non-toxic
- Activity (SK-HEP1 [17]): Active
- Activity (SK-HEP1 [18]): Active
- Activity (SK-HEP1 [21]): No effect
- Activity (SK-HEP1 [22]): Active
- Activity (SK-HEP1 [23]): Active
- Activity (SK-HEP1 [24]): Dose-dependent-effect
- Activity [25]: Non-toxic
- Activity (SK-HEP1 [26]): No effect
- inhibition [27]: Active; Results In Decrease In Hr And Nhej Efficiencies
- inhibition (SK-HEP1 [28]): Active
- Activity [29]: Non-toxic
- Activity [31]: Non-toxic
- pIC50 (SK-HEP1 [32]): ~6.35
- Activity (SK-HEP1 [33]): inactive
